Experimental data from ChEMBL document CHEMBL3885881, “DrugMatrix”.

Species: Rattus norvegicus
Experiment: DrugMatrix - Regimen: Daily Repeat
Assay type: toxicity, organism-based, Sprague-Dawley
Set-up: regimen Daily Repeat, gender Male, age 6-8 weeks
Conditions: in vivo, po, route oral GAVAGE, […]; for ABSOLUTE BASOPHIL / BASOPHIL / NUCLEATED RED BLOOD CELLS / ABSOLUTE EOSINOPHIL / EOSINOPHIL / HEMOGLOBIN / ABSOLUTE LYMPHOCYTE / ABSOLUTE MONOCYTE / ABSOLUTE SEGMENTED NEUTROPHIL / ERYTHROCYTE COUNT / HEMATOCRIT / LEUKOCYTE COUNT / LYMPHOCYTE / MEAN CORPUSCULAR HEMOGLOBIN / MEAN CORPUSCULAR HEMOGLOBIN CONCENTRATION / MEAN CORPUSCULAR VOLUME / MONOCYTE / NEUTROPHIL / PLATELET COUNT: tissue Blood; for TOTAL BILIRUBIN / ALANINE AMINOTRANSFERASE / ALBUMIN / ALKALINE PHOSPHATASE / ASPARTATE AMINOTRANSFERASE / BLOOD UREA NITROGEN / CARBON DIOXIDE / CHLORIDE / CHOLESTEROL / CREATINE PHOSPHOKINASE / CREATININE / GLUCOSE / LACTATE DEHYDROGENASE / LIPASE / PHOSPHORUS / POTASSIUM / SODIUM / TOTAL PROTEIN / URIC ACID: tissue Plasma
[1] = 0 mg/kg, 72 h, dose level Control, time 3 day
[2] = 0 mg/kg, 120 h, dose level Control, time 5 day
[3] = 3 mg/kg, 72 h, dose level Low, time 3 day
[4] = 3 mg/kg, 120 h, dose level Low, time 5 day
[5] = 9 mg/kg, 72 h, dose level M1, time 3 day

CS(=O)(=O)OCCCCOS(C)(=O)=O [BUSULFAN]
ABSOLUTE BASOPHIL [1]: 0 CELLS/uL | BASOPHIL [1]: 0% | NUCLEATED RED BLOOD CELLS [1]: 0 /100WBC | TOTAL BILIRUBIN [1]: 0.2 mg/dL | ABSOLUTE BASOPHIL [2]: 0 CELLS/uL | ABSOLUTE EOSINOPHIL [2]: 0 CELLS/uL | BASOPHIL [2]: 0% | EOSINOPHIL [2]: 0% | HEMOGLOBIN [2]: 13.5 G/DL | ABSOLUTE BASOPHIL [3]: 0 CELLS/uL | ABSOLUTE EOSINOPHIL [3]: 108.33 CELLS/uL | ABSOLUTE LYMPHOCYTE [3]: 8850.33 CELLS/uL | ABSOLUTE MONOCYTE [3]: 34.33 CELLS/uL | ABSOLUTE SEGMENTED NEUTROPHIL [3]: 773.67 CELLS/uL | BASOPHIL [3]: 0% | EOSINOPHIL [3]: 1% | ERYTHROCYTE COUNT [3]: 4.94 x10E6/uL | HEMATOCRIT [3]: 32% | HEMOGLOBIN [3]: 12.67 G/DL | LEUKOCYTE COUNT [3]: 9.77 x10E3/uL | LYMPHOCYTE [3]: 91% | MEAN CORPUSCULAR HEMOGLOBIN [3]: 25.67 pg | MEAN CORPUSCULAR HEMOGLOBIN CONCENTRATION [3]: 39.6 G/DL | MEAN CORPUSCULAR VOLUME [3]: 64.8 fL | MONOCYTE [3]: 0.33% | NEUTROPHIL [3]: 7.67% | NUCLEATED RED BLOOD CELLS [3]: 0 /100WBC | PLATELET COUNT [3]: 940.33 x10E3/uL | ALANINE AMINOTRANSFERASE [3]: 62.33 u/L | ALBUMIN [3]: 3.77 G/DL | ALKALINE PHOSPHATASE [3]: 286.67 u/L | ASPARTATE AMINOTRANSFERASE [3]: 86.67 u/L | BLOOD UREA NITROGEN [3]: 12.33 mg/dL | CARBON DIOXIDE [3]: 33.5 mmol/L | CHLORIDE [3]: 101 MEQ/L | CHOLESTEROL [3]: 62.33 mg/dL | CREATINE PHOSPHOKINASE [3]: 229.33 u/L | CREATININE [3]: 0.12 mg/dL | GLUCOSE [3]: 162.67 mg/dL | LACTATE DEHYDROGENASE [3]: 71.67 u/L | LIPASE [3]: 12 u/L | PHOSPHORUS [3]: 10 mg/dL | POTASSIUM [3]: 5.22 MEQ/L | SODIUM [3]: 144.35 MEQ/L | TOTAL BILIRUBIN [3]: 0.13 mg/dL | TOTAL PROTEIN [3]: 5.37 G/DL | URIC ACID [3]: 0.47 mg/dL | ABSOLUTE BASOPHIL [4]: 0 CELLS/uL | ABSOLUTE EOSINOPHIL [4]: 12.67 CELLS/uL | ABSOLUTE LYMPHOCYTE [4]: 5804 CELLS/uL | ABSOLUTE MONOCYTE [4]: 73.33 CELLS/uL | ABSOLUTE SEGMENTED NEUTROPHIL [4]: 310 CELLS/uL | BASOPHIL [4]: 0% | EOSINOPHIL [4]: 0.33% | ERYTHROCYTE COUNT [4]: 5.4 x10E6/uL | HEMATOCRIT [4]: 33.53% | HEMOGLOBIN [4]: 12.9 G/DL | LEUKOCYTE COUNT [4]: 6.2 x10E3/uL | LYMPHOCYTE [4]: 92.67% | MEAN CORPUSCULAR HEMOGLOBIN [4]: 23.9 pg | MEAN CORPUSCULAR HEMOGLOBIN CONCENTRATION [4]: 38.5 G/DL | MEAN CORPUSCULAR VOLUME [4]: 62.07 fL | MONOCYTE [4]: 1.33% | NEUTROPHIL [4]: 5.67% | NUCLEATED RED BLOOD CELLS [4]: 0 /100WBC | PLATELET COUNT [4]: 1068.67 x10E3/uL | ALANINE AMINOTRANSFERASE [4]: 47.67 u/L | ALBUMIN [4]: 4.13 G/DL | ALKALINE PHOSPHATASE [4]: 363 u/L | ASPARTATE AMINOTRANSFERASE [4]: 87 u/L | BLOOD UREA NITROGEN [4]: 12.33 mg/dL | CARBON DIOXIDE [4]: 28.67 mmol/L | CHLORIDE [4]: 100 MEQ/L | CHOLESTEROL [4]: 62 mg/dL | CREATINE PHOSPHOKINASE [4]: 290.67 u/L | CREATININE [4]: 0.16 mg/dL | GLUCOSE [4]: 165.67 mg/dL | LACTATE DEHYDROGENASE [4]: 77.67 u/L | LIPASE [4]: 13.33 u/L | PHOSPHORUS [4]: 9.3 mg/dL | POTASSIUM [4]: 5.76 MEQ/L | SODIUM [4]: 145.25 MEQ/L | TOTAL BILIRUBIN [4]: 0.17 mg/dL | TOTAL PROTEIN [4]: 6 G/DL | URIC ACID [4]: 0.53 mg/dL | ABSOLUTE BASOPHIL [5]: 0 CELLS/uL | ABSOLUTE EOSINOPHIL [5]: 0 CELLS/uL | ABSOLUTE LYMPHOCYTE [5]: 12304.67 CELLS/uL | ABSOLUTE MONOCYTE [5]: 88.33 CELLS/uL | ABSOLUTE SEGMENTED NEUTROPHIL [5]: 840.33 CELLS/uL | BASOPHIL [5]: 0% | EOSINOPHIL [5]: 0% | ERYTHROCYTE COUNT [5]: 5.46 x10E6/uL | HEMATOCRIT [5]: 33.63% | HEMOGLOBIN [5]: 13.23 G/DL | LEUKOCYTE COUNT [5]: 13.23 x10E3/uL | LYMPHOCYTE [5]: 92.67% | MEAN CORPUSCULAR HEMOGLOBIN [5]: 24.27 pg | MEAN CORPUSCULAR HEMOGLOBIN CONCENTRATION [5]: 39.37 G/DL | MEAN CORPUSCULAR VOLUME [5]: 61.57 fL | MONOCYTE [5]: 0.67% | NEUTROPHIL [5]: 6.67% | NUCLEATED RED BLOOD CELLS [5]: 0 /100WBC | PLATELET COUNT [5]: 1234.33 x10E3/uL | ALANINE AMINOTRANSFERASE [5]: 56.33 u/L | ALBUMIN [5]: 4.03 G/DL | ALKALINE PHOSPHATASE [5]: 362 u/L | ASPARTATE AMINOTRANSFERASE [5]: 76 u/L | BLOOD UREA NITROGEN [5]: 13 mg/dL | CARBON DIOXIDE [5]: 29.33 mmol/L | CHLORIDE [5]: 102.33 MEQ/L | CHOLESTEROL [5]: 77 mg/dL | CREATINE PHOSPHOKINASE [5]: 320.33 u/L | CREATININE [5]: 0.19 mg/dL | GLUCOSE [5]: 162.67 mg/dL | LACTATE DEHYDROGENASE [5]: 161.33 u/L | LIPASE [5]: 12 u/L | PHOSPHORUS [5]: 10.37 mg/dL
